A short description of data set [1]: Acute toxicity in mouse assessed as pathological damage in heart at 100 to 200 mg/kg,IG and measured after 14 days by H and E staining based microscopy. The format is organism-based. The note with it: in vivo, po, 336 h, dose 100-200 mg/kg, time 14 day.
For data set [2], the target named is T1, Receptor-interacting serine/threonine-protein kinase 3 (Homo sapiens, UniProt Q9Y572). As to the kind of experiment: Binding affinity to recombinant RIPK3 (unknown origin) assessed as dissociation constant incubated for 1 hr by KINOMEscanTM assay.
Target sequence in this assay (Q9Y572 whole entry): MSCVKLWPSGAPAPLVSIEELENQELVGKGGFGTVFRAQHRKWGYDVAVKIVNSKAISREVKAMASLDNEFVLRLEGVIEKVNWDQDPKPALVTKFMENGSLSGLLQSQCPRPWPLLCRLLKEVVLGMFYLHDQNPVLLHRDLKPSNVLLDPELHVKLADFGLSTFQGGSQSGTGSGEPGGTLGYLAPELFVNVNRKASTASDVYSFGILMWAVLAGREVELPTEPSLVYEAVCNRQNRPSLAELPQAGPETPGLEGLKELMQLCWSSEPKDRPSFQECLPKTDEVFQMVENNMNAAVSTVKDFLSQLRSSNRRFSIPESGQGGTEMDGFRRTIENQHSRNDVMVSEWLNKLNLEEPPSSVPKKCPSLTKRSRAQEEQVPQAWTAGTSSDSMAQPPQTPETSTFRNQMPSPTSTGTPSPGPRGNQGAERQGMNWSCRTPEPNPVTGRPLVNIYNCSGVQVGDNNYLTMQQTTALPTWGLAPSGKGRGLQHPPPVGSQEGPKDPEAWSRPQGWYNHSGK
Data set [3] deals with T2, Receptor-interacting serine/threonine-protein kinase 1 (Homo sapiens, UniProt Q13546).
T2 sequence (Q13546 whole entry): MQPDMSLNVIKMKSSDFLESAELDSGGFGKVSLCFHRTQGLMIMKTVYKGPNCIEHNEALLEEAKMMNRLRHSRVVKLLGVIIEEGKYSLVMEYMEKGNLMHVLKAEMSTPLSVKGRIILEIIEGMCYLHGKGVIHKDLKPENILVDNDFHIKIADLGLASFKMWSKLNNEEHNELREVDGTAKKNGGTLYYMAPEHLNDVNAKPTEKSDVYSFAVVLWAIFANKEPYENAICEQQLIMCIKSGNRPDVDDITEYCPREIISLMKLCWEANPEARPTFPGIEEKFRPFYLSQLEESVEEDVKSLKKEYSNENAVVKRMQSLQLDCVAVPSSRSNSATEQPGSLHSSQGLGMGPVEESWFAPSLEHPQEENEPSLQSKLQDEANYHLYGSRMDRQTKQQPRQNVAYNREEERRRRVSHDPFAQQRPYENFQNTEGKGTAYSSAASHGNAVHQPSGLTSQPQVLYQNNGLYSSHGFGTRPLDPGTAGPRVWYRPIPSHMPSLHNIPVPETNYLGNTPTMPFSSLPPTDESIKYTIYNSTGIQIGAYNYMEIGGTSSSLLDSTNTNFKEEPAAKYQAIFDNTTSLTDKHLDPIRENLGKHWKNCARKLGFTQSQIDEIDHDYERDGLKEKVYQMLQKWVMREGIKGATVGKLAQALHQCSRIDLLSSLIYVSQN
As to the kind of experiment: Binding affinity to recombinant RIPK1 (unknown origin) assessed as dissociation constant incubated for 1 hr by KINOMEscanTM assay.

Data set [4] deals with T1, Receptor-interacting serine/threonine-protein kinase 3. As to the kind of experiment: Inhibition of RIPK3 phosphorylation in TSZ induced human HT-29 cells at 1 uM pretreated with compound followed by TSZ stimulation for 6 hrs by Western blot analysis. Format: cell-based.
Target sequence in this assay (Q9Y572 whole entry, looked up): as the sequence (Q9Y572 whole entry) above
For data set [5], the target named is T3, Mixed lineage kinase domain-like protein (Homo sapiens) (UniProt Q8NB16).
T3 sequence (whole entry): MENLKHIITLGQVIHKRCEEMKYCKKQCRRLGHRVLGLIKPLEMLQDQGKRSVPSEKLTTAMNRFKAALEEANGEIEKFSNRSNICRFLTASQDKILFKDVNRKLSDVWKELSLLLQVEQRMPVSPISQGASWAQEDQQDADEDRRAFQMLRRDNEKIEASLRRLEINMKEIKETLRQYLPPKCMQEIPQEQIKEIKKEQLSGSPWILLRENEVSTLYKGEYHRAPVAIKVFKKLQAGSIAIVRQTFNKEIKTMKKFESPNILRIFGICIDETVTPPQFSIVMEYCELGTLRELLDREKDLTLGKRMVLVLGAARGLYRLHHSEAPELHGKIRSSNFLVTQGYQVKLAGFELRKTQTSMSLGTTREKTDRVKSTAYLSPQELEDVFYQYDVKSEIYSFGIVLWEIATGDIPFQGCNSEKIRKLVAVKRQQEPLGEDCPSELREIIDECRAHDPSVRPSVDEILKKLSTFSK
Kind of data set: Inhibition of MLKL phosphorylation in TSZ induced human HT-29 cells at 1 uM pretreated with compound followed by TSZ stimulation for 6 hrs by Western blot analysis. Format: cell-based.

Data set [6] concerns the target T4, Receptor-interacting serine/threonine-protein kinase 1 (Homo sapiens) (UniProt Q13546).
T4 sequence (whole entry): T2 sequence (Q13546 whole entry)
As to the kind of experiment: Inhibition of RIPK1 phosphorylation in TSZ induced human HT-29 cells at 1 to 1000 nM pretreated with compound followed by TSZ stimulation for 6 hrs by Western blot analysis. Format: cell-based. The note with it: dose 1-1000 nM. (In general: Immunoblotting shows a protein as a band on a membrane.)

Active and inactive are the calls of the source. No cut-off for these calls is given here.

As a reminder, the Kd is a measure of binding affinity in units of concentration. On to `O=C(Cc1cccc(OC(F)(F)F)c1)Nc1cc(-c2ccc3nc(NC(=O)C4CC4)sc3c2)ccc1F`, for which the Activity result in data set [1] is on record as “Non-Toxic”. The Kd in data set [2] is more than 5000 nM; in data set [3], 17 nM. The inhibition result in data set [4] and in data set [5] was “Active” each time. Moreover, in data set [6], the inhibition result is “Dose-Dependent Effect”.

For the origin of these results see ChEMBL document CHEMBL5370665, “Insight from Linker Investigations: Discovery of a Novel Phenylbenzothiazole Necroptosis Inhibitor Targeting Receptor-Interacting Protein Kinase 1 (RIPK1) from a Phenoxybenzothiazole Compound with Dual RIPK1/3 Targeting Activity” (J Med Chem, 2023).
